Experimental data: ChEMBL document CHEMBL4004825 (J Med Chem, 2017)

What was measured:
[1] = Half life in mouse plasma; assay type: ADME
[2] = target: T1, Dual specificity mitogen-activated protein kinase kinase 7 (Homo sapiens, UniProt O14733); experiment: Inhibition of human N-terminal GST-tagged full length MAP2K7 expressed in baculovirus infected Sf21 insect cells in presence of 1 mM ATP
T1 sequence (O14733 whole entry): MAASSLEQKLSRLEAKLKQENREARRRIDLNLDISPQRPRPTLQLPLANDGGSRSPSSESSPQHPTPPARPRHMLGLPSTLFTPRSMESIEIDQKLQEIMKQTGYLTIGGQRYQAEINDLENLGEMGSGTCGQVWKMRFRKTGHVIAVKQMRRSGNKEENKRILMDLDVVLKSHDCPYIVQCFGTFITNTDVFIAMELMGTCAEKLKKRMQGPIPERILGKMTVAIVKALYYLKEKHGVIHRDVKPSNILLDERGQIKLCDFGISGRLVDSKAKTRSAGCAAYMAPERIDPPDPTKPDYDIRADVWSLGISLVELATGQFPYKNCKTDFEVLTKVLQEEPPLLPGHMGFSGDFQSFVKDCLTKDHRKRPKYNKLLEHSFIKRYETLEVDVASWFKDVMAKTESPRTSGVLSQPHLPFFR

[3] = Half life in dog plasma; assay type: ADME, Canis lupus familiaris
[4] = target: Receptor tyrosine-protein kinase erbB-2 (Homo sapiens, UniProt P04626); experiment: Inhibition of human N-terminal His-tagged HER2 expressed in baculovirus expression system in presence of 1 mM ATP
[5] = target: T2, Tyrosine-protein kinase Blk (Homo sapiens, UniProt P51451); experiment: Inhibition of full length recombinant human His-tagged cytoplasmic BLK expressed in baculovirus expression system in presence of 1 mM ATP by KT236 probe based TR-FRET assay
[6] = target: T2, Tyrosine-protein kinase Blk; experiment: Inhibition of full length recombinant human His-tagged cytoplasmic BLK expressed in baculovirus expression system by KT236 probe based TR-FRET assay
[7] = Oral bioavailability in mouse; assay type: ADME, organism-based; details: in vivo
[8] = Unbound intrinsic clearance in mouse hepatocytes assessed per million cells; assay type: ADME, cell-based, Hepatocyte
[9] = target: Epidermal growth factor receptor (Homo sapiens, UniProt P00533); experiment: Inhibition of N-terminal GST-tagged human EGFR cytoplasmic domain expressed in baculovirus infected Sf21 insect cells in presence of 1 mM ATP
[10] = Unbound intrinsic clearance in human hepatocytes assessed per million cells; assay type: ADME, cell-based, Hepatocyte
[11] = Permeability in RRCK cells; assay type: ADME, cell-based, Canis lupus familiaris, MDCKII-LE; details: dog, MDCK; read-out: permeability
[12] = Aqueous solubility of the compound; assay type: physicochemical
[13] = Unbound intrinsic clearance in monkey hepatocytes assessed per million cells; assay type: ADME, cell-based, Macaca mulatta, Hepatocyte; details: rhesus monkey
[14] = Oral bioavailability in rat; assay type: ADME, organism-based; details: in vivo
[15] = Blood clearance in monkey; assay type: ADME, Macaca mulatta; details: rhesus monkey, whole blood
[16] = Volume of distribution at steady state in mouse; assay type: ADME, organism-based; details: in vivo, read-out: Vdss
[17] = Blood clearance in rat; assay type: ADME; details: whole blood
[18] = Half-life in monkey blood; assay type: ADME, tissue-based, Macaca mulatta; details: rhesus monkey
[19] = Volume of distribution at steady state in dog; assay type: ADME, Canis lupus familiaris; details: in vivo, read-out: Vdss
[20] = Blood clearance in mouse; assay type: ADME, organism-based; details: whole blood
[21] = Volume of distribution at steady state in rat; assay type: ADME; details: in vivo, read-out: Vdss
[22] = Half-life in rat blood; assay type: ADME, tissue-based
[23] = target: T3, Tyrosine-protein kinase TXK (Homo sapiens, UniProt P42681); experiment: Inhibition of recombinant human N-terminal GST-tagged TXK using GEPLYWSFPAKKK as substrate measured every 60 secs for 1 hr by PK/LDH coupled spectrophotometric assay
T3 sequence (P42681 whole entry): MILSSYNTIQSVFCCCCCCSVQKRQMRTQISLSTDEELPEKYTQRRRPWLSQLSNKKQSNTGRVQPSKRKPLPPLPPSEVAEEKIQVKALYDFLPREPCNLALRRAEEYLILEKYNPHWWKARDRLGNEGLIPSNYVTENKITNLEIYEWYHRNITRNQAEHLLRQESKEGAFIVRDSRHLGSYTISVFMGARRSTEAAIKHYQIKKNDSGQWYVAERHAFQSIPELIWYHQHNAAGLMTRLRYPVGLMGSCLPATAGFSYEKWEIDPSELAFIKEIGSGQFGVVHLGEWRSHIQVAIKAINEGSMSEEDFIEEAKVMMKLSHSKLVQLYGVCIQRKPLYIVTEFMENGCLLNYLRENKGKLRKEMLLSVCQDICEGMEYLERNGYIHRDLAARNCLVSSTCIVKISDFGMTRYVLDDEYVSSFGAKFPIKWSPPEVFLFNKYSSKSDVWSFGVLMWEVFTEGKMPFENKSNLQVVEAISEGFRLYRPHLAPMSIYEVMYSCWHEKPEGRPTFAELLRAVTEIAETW

[24] = Oral bioavailability in monkey; assay type: ADME, organism-based, Macaca mulatta; details: rhesus monkey, in vivo
[25] = target: T4, Tyrosine-protein kinase Tec (Homo sapiens, UniProt P42680); experiment: Inhibition of full length human His-tagged TEC by KT178 probe based TR-FRET assay
T4 sequence (P42680 whole entry): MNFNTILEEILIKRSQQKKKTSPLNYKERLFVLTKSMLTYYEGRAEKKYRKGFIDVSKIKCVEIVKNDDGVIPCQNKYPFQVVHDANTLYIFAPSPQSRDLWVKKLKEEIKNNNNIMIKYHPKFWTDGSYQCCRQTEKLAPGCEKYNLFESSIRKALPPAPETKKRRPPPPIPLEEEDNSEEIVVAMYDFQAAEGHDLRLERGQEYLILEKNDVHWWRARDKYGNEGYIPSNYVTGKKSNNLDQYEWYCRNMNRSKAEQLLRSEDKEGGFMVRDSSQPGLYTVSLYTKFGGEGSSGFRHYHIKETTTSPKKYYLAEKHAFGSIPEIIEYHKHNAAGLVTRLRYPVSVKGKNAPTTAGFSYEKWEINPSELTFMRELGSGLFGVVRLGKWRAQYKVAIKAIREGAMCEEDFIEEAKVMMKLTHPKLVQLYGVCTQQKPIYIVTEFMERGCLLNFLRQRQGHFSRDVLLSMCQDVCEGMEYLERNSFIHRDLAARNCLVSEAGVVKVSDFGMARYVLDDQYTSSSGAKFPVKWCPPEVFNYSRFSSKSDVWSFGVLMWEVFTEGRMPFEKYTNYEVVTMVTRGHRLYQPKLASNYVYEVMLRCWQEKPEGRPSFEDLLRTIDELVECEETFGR

[26] = Half life in monkey plasma; assay type: ADME, Macaca mulatta; details: rhesus monkey
[27] = Unbound intrinsic clearance in rat hepatocytes assessed per million cells; assay type: ADME, cell-based, Hepatocyte
[28] = Unbound intrinsic clearance in dog hepatocytes assessed per million cells; assay type: ADME, cell-based, Canis lupus familiaris, Hepatocyte
[29] = Blood clearance in dog; assay type: ADME, Canis lupus familiaris; details: whole blood
[30] = Volume of distribution at steady state in monkey; assay type: ADME, Macaca mulatta; details: rhesus monkey, in vivo; read-out: Vdss
[31] = Half life in rat plasma; assay type: ADME
[32] = Half-life in Sprague-Dawley rat blood at 1 uM by LC-MS/MS analysis; assay type: ADME, tissue-based
[33] = Stability in rat liver microsomes; assay type: ADME, microsome; details: read-out: Stability
[34] = Oral bioavailability in dog; assay type: ADME, organism-based, Canis lupus familiaris; details: in vivo
[35] = Stability in human liver microsomes; assay type: ADME, microsome; details: read-out: Stability

T2 sequence (P51451 whole entry): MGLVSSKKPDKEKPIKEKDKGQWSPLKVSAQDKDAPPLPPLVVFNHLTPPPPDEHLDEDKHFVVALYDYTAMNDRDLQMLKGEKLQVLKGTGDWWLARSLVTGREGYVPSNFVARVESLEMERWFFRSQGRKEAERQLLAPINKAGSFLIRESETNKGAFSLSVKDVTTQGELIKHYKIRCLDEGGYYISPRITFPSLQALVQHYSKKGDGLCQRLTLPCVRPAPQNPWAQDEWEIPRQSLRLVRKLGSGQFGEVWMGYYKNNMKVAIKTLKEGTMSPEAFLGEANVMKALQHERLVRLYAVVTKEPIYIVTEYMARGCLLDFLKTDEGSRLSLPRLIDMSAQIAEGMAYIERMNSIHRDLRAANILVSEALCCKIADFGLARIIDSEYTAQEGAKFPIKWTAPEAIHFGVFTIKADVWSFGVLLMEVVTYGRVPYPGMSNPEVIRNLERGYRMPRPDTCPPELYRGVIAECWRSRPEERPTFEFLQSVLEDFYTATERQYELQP
Epidermal growth factor receptor, sequence (P00533 whole entry, the tested form may be a part): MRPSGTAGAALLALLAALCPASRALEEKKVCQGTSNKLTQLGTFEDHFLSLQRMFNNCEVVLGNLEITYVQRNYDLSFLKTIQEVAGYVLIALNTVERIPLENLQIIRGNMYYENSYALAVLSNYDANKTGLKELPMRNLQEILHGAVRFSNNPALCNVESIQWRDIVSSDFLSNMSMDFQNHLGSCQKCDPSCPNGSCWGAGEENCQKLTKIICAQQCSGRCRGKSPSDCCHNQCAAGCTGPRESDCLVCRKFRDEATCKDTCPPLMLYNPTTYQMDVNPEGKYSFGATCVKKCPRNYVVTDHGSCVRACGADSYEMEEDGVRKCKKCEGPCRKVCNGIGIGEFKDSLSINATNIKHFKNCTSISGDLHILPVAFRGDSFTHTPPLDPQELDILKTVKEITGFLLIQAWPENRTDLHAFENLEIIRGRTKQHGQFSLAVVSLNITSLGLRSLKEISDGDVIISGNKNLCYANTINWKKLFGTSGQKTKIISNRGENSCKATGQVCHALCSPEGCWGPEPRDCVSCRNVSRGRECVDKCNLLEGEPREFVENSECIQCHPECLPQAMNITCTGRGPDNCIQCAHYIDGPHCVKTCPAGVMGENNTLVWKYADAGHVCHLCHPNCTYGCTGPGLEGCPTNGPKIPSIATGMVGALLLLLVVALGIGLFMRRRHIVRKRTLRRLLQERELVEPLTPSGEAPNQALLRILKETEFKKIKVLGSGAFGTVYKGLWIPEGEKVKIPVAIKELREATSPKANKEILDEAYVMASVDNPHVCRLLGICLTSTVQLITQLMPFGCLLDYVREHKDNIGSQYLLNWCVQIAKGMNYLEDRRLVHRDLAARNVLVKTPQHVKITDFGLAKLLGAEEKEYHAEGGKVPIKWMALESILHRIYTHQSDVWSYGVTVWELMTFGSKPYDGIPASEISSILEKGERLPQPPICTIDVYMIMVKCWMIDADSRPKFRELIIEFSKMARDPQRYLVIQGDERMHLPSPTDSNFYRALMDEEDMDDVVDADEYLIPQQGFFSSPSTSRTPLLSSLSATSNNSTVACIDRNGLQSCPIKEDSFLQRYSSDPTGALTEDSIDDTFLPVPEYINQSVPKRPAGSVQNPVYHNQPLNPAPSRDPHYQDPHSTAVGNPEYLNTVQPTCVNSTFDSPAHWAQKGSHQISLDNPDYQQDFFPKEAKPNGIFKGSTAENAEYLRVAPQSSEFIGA
Receptor tyrosine-protein kinase erbB-2, sequence (P04626 whole entry): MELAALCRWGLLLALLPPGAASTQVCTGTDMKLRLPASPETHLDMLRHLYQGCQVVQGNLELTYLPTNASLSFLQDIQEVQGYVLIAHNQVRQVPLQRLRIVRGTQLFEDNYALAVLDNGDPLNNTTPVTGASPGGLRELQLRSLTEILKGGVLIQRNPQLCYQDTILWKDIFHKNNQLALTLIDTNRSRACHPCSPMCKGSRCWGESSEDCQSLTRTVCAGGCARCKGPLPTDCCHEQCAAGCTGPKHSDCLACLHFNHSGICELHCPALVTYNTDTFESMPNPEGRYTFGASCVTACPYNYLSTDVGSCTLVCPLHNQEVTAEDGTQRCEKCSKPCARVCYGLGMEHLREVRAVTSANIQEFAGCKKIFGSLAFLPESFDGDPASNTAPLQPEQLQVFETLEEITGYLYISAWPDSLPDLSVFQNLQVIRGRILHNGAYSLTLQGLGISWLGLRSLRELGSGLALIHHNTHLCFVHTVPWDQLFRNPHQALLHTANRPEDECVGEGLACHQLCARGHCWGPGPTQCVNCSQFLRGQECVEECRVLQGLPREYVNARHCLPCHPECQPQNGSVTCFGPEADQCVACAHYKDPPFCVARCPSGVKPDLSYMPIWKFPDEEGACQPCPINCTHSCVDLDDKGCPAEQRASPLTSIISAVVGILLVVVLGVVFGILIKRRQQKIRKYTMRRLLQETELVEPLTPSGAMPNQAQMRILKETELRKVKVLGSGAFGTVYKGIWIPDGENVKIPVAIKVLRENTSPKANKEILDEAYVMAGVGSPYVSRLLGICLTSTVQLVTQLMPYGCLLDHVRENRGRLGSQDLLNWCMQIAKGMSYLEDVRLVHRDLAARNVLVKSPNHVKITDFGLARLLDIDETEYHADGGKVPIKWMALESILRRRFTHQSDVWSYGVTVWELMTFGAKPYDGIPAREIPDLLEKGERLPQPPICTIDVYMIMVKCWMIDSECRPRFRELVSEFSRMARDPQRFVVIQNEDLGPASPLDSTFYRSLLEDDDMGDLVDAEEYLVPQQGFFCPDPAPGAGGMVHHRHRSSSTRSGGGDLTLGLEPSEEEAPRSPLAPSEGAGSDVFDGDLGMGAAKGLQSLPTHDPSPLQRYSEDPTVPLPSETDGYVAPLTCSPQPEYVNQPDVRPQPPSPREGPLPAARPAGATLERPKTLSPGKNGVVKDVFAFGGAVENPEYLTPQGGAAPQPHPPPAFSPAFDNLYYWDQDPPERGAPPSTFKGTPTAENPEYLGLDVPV

Q: What does the source list for `C=CC(=O)N1C[C@H](Nc2ncnc3[nH]ccc23)CC[C@@H]1C` [RITLECITINIB]?
A: half-life [1]: 1.3 h; IC50 [2]: > 50 µM; half-life [3]: 1.1 h; IC50 [4]: > 50 µM; IC50 [5]: 19 µM; Ki [6]: 32.4 µM; bioavailability [7]: 62%; CL free [8]: 53 µL/min; IC50 [9]: > 50 µM; CL free [10]: 2.8 µL/min; Papp [11]: 15 ×10⁻⁶ cm/s; solubility [12]: > 2000 µg/mL; CL free [13]: 7.6 µL/min; bioavailability [14]: 85%; clearance [15]: 42 mL/min/kg; Vd [16]: 0.8 L/kg; clearance [17]: 53 mL/min/kg; half-life [18]: 0.617 h; Vd [19]: 1.1 L/kg; clearance [20]: 48 mL/min/kg; Vd [21]: 1.4 L/kg; half-life [22]: 2.68 h; Ki [23]: 0.131 µM; bioavailability [24]: 56%; Ki [25]: 0.679 µM; half-life [26]: 0.7 h; CL free [27]: 14 µL/min; CL free [28]: 2.1 µL/min; clearance [29]: 8.6 mL/min/kg; Vd [30]: 2.6 L/kg; half-life [31]: 0.3 h; half-life at 1 µM [32]: 2.68 h; microsomal CLint [33]: < 15 µL/min/mg; bioavailability [34]: 109%; microsomal CLint [35]: 8 µL/min/mg
